Experimental data as given in US20250171432A1, “COMPOUNDS AND METHODS OF USE” (Tango Therapeutics, Inc., priority 2022, published 2025).

Key:
Assay type in all cases: cell-based
[1] = test system: SDMA (PRMT5 activity) in HAP1 MTAP-deleted cell line; experiment: SDMA in-cell western assay, HAP1 MTAP-deleted; settings: for IC50 / IC90: SDMA in-cell western, HAP1 MTAP-deleted cells, 24 hours compound incubation; for Hap1 MTAP intact/deleted ratio: ratio of SDMA IC50 in HAP1 MTAP-intact to HAP1 MTAP-deleted cell line
Method: (§1) The SAM-cooperative PRMT5 inhibitor, GSK3326595, was sourced from SelleckChem and maintained as a 10 mM DMSO stock. All test compounds are maintained as 10 mM DMSO stocks
(§2) On Day 0, MTAP-intact or MTAP-deleted cells are seeded in a 384-well plate, and incubated in a humidified, 5% CO2 tissue culture incubator for 16-24 hours. On Day 1, the test compounds are dispensed to wells at defined concentrations using a Tecan D300e digital dispenser (n=4), and the volume of DMSO is normalized to highest class volume. Each plate includes wells dosed with defined concentrations of GSK33226595 as a plate control. The compounds are incubated with cells for 24 hours in a humidified, 5% CO2 tissue culture incubator.
(§3) On Day 2, the compound-treated cells are fixed with a final concentration of 4% formaldehyde. The cells are then washed/permeabilized with 1×PBS+0.1% Triton X-100, and then blocked with 5% goat serum/1×TBS.
(§4) The cells are washed with 1×PBS+0.1% Triton X-100, and then washed again with ddH20. The plates are then imaged using a NIR fluorescent imager (LiCor Odyssey).
(§5) For data analysis, the SDMA signal is normalized to the DRAQ5 signal. Assay background is determined by the signal from wells treated with 1 μM GSK3326595, and subtracted from every well. The data are plotted as % of the DMSO control wells for the MTAP-intact and the MTAP-deleted cell lines independently, and fitted to the 4-parameter logistic (4-PL) Hill equation with maximal effect constrained to 0. The fit was performed using GraphPad Prism or the default IC50 fitting procedure in Dotmatics Studies 5.4 as part of a customized data analysis protocol.

[2] = test system: SDMA (PRMT5 activity) in HAP1 MTAP-intact cell line; experiment: SDMA in-cell western assay, HAP1 MTAP-intact; settings: SDMA in-cell western, HAP1 MTAP-intact cells, 24 hours compound incubation
Method: as §1, §2, §3, §4, §5

[3] = test system: HAP1 MTAP-deleted cell line; experiment: Viability assay (CellTiter-Glo), HAP1 MTAP-deleted; settings: HAP1 MTAP-deleted cells, 7 days
Method: All test compounds are maintained as 10 mM DMSO stocks.
On Day 0, MTAP-intact and MTAP-deleted cells are seeded in a 96-well plate, and incubated in a humidified, 5 or 10% CO2 tissue culture incubator for 16-24 hours. On Day 1, the test compounds are dispensed to wells at defined concentrations using a Tecan D300e digital dispenser (n=3), and the volume of DMSO is normalized to highest class volume (0.2%). The compound-treated plates are incubated for 7 days in a humidified, 5 or 10% CO2 tissue culture incubator.
On Day 7, the plates are removed from the tissue culture incubator and allowed to equilibrate to room temperature. Then either a ½% volume CellTiter-Glo Luminescent Cell Viability Assay reagent (Promega G7572) is added to each well, or the media is removed from every well and a 1:3 dilution of CellTiter-Glo 2.0 Cell Viability Assay reagent (Promega G9241) in 1×PBS is added. Ten minutes after addition, the luminescent signal is detected by an Envision plate reader. The data are plotted as % of the DMSO control wells for the MTAP-intact and the MTAP-deleted cell lines independently, and fitted to the 4-parameter logistic (4-PL) Hill equation with maximal effect constrained to 0. The fit was performed using GraphPad Prism or the default IC50 fitting procedure in Dotmatics Studies 5.4 as part of a customized data analysis protocol.

Row | Structure (SMILES) | IC50 ([1]; Homo sapiens) [nM] | IC90 ([1]; Homo sapiens) [nM] | Hap1 MTAP intact/deleted ratio [1] | IC50 ([2]; Homo sapiens, HAP1, 24 h) [nM] | IC50 ([3]; Homo sapiens, 168 h) [nM] | IC50 ([2]; Homo sapiens) [nM] | IC50 [1] [nM] | IC90 [1] [nM] | IC50 [2] [nM] | IC50 [3] [nM]
1 | COc1ncc(NC(=O)C(=O)N2C[C@@H](C)CC[C@@H]2c2ccc3sc([C@H]4C[C@H](N(C)C)C4)nc3c2)cc1C(N)=O (single isomer, unassigned) [Compound 50] | < 5 | < 75 | A (“A” indicates an IC50 ratio greater than or equal to 30 fold) | > 50 | < 100 | – | – | – | – | –
2 | CCc1cc(NC(=O)C(=O)N2C[C@@H](C)CC[C@@H]2c2ccc3cn([C@@H]4C[C@@H](C)CN(C)C4)nc3c2)cnc1N (relative stereo) [Compound 60, N-(6-amino-5-ethylpyridin-3-yl)-2-((2R,5S)-2-(2-(1,5-dimethylpiperidin-3-yl)-2H-indazol-6-yl)-5-methylpiperidin-1-yl)-2-oxoacetamide] | < 5 | < 75 | A (“A” indicates an IC50 ratio greater than or equal to 30 fold) | > 50 | < 100 | – | – | – | – | –
3 | COc1ncc(NC(=O)C(=O)N2C[C@@H](C)CC[C@@H]2c2ccc3sc(CC4CCN(C)CC4)nc3c2)cc1C(N)=O [Compound 20, 2-methoxy-5-(2-((2R,5S)-5-methyl-2-(2-((1-methylpiperidin-4-yl)methyl)benzo[d]thiazol-5-yl)piperidin-1-yl)-2-oxoacetamido)nicotinamide] | < 5 | < 75 | A (“A” indicates an IC50 ratio greater than or equal to 30 fold) | > 50 | < 100 | – | – | – | – | –
4 | COc1ncc(NC(=O)C(=O)N2C[C@@H](C)CC[C@@H]2c2ccc3sc([C@@H]4CCN(C)C[C@@H]4C)nc3c2)cc1C(N)=O (relative stereo) [Compound 12, 2-methoxy-5-[[2-oxo-2-[(2R,5S)-5-methyl-2-[2-[rel-(3R,4R)-1,3-dimethyl-4-piperidyl]-1,3-benzothiazol-5-yl]-1-piperidyl]acetyl]amino]pyridine-3-carboxamide] | < 5 | < 75 | A (“A” indicates an IC50 ratio greater than or equal to 30 fold) | > 50 | < 100 | – | – | – | – | –
5 | CCc1cc(NC(=O)C(=O)N2CCCC[C@@H]2c2ccc3sc(C4CCN(C)CC4)nc3c2)cnc1N [Compound 73, N-(6-amino-5-ethylpyridin-3-yl)-2-(2-(2-(1-methylpiperidin-4-yl)benzo[d]thiazol-5-yl)piperidin-1-yl)-2-oxoacetamide] | 5 to 50 | 75 to 125 | A (“A” indicates an IC50 ratio greater than or equal to 30 fold) | > 50 | 100 to 1000 | – | – | – | – | –
6 | COc1ncc(NC(=O)C(=O)N2C[C@@H](C)CC[C@@H]2c2ccc3sc(C[C@H](C)N(C)C)nc3c2)cc1C(N)=O [Compound 98, 5-(2-((2R,5S)-2-(2-((S)-2-(dimethylamino)propyl)benzo[d]thiazol-5-yl)-5-methylpiperidin-1-yl)-2-oxoacetamido)-2-methoxynicotinamide] | < 5 | < 75 | A (“A” indicates an IC50 ratio greater than or equal to 30 fold) | > 50 | – | – | – | – | – | –
7 | COc1ncc(NC(=O)C(=O)N2C[C@@H](C)CC[C@@H]2c2ccc3sc(C4(C)CCN(C)CC4)nc3c2)cc1C(N)=O [Compound 122, 5-(2-((2R,5S)-2-(2-(1,4-dimethylpiperidin-4-yl)benzo[d]thiazol-5-yl)-5-methylpiperidin-1-yl)-2-oxoacetamido)-2-methoxynicotinamide] | < 5 | < 75 | A (“A” indicates an IC50 ratio greater than or equal to 30 fold) | – | < 100 | > 50 | – | – | – | –
8 | COc1ncc(NC(=O)C(=O)N2C[C@@H](C)CC[C@@H]2c2ccc3sc([C@]45CCC(C4)N(C)C5)nc3c2)cc1C(N)=O [Compound 71, 2-methoxy-5-(2-((2R,5S)-5-methyl-2-(2-((4R)-2-methyl-2-azabicyclo[2.2.1]heptan-4-yl)benzo[d]thiazol-5-yl)piperidin-1-yl)-2-oxoacetamido)nicotinamide] | < 5 | < 75 | B (“B” indicates an IC50 ratio greater than or equal to 15 fold but lower than 30 fold) | > 50 | < 100 | – | – | – | – | –
9 | COc1ncc(NC(=O)C(=O)N2C[C@@H](C)CC[C@@H]2c2ccc3sc([C@H](C)N(C)C)nc3c2)cc1C(N)=O [Compound 96, 2-methoxy-5-[[2-oxo-2-[(2R,5S)-5-methyl-2-[2-[(1S)-1-(dimethylamino)ethyl]-1,3-benzothiazol-5-yl]-1-piperidyl]acetyl]amino]pyridine-3-carboxamide] | 5 to 50 | 75 to 125 | A (“A” indicates an IC50 ratio greater than or equal to 30 fold) | > 50 | < 100 | – | – | – | – | –
10 | CCc1cc(NC(=O)C(=O)N2C[C@@H](C)CC[C@@H]2c2ccc3sc(C(C)CN4CCCC4)nc3c2)cnc1N (single isomer, unassigned) [Compound 106] | – | – | B (“B” indicates an IC50 ratio greater than or equal to 15 fold but lower than 30 fold) | – | – | – | < 5 | < 75 | 5 to 50 | < 100
11 | CCc1cc(NC(=O)C(=O)N2C[C@@H](C)CC[C@@H]2c2ccc3sc([C@@H]4C[C@H](C)N(C)C4)nc3c2)cnc1N (racemic) [Compound 16, N-(6-amino-5-ethyl-3-pyridyl)-2-oxo-2-[(2R,5S)-5-methyl-2-[2-[rac-(3S,5R)-1,5-dimethylpyrrolidin-3-yl]-1,3-benzothiazol-5-yl]-1-piperidyl]acetamide] | < 5 | < 75 | A (“A” indicates an IC50 ratio greater than or equal to 30 fold) | > 50 | < 100 | – | – | – | – | –
12 | CCc1cc(NC(=O)C(=O)N2C[C@@H](C)CC[C@@H]2c2ccc3sc([C@@H]4C[C@@H]5CN(C)C[C@@H]5C4)nc3c2)cnc1N (single isomer, unassigned) [Compound 111] | < 5 | < 75 | B (“B” indicates an IC50 ratio greater than or equal to 15 fold but lower than 30 fold) | > 50 | < 100 | – | – | – | – | –
13 | [2H][13C]([2H])([2H])N1CCC(c2nc3cc([C@H]4CC[C@H](C)CN4C(=O)C(=O)Nc4cnc(N)c(CC)c4)ccc3s2)CC1 [Compound 129, N-(6-amino-5-ethyl-3-pyridyl)-2-oxo-2-[(2R,5S)-5-methyl-2-[2-[1-(trideuterio(1^13C)methyl)-4-piperidyl]-1,3-benzothiazol-5-yl]-1-piperidyl]acetamide] | – | – | – | – | < 100 | – | – | – | – | –
14 | CCc1cc(NC(=O)C(=O)N2C[C@@H](C)CC[C@@H]2c2ccc3c(c2)OC2(CCN(C)CC2)O3)cnc1N [Compound 92, N-(6-amino-5-ethylpyridin-3-yl)-2-((2R,5S)-5-methyl-2-(1′-methylspiro[benzo[d][1,3]dioxole-2,4′-piperidin]-5-yl)piperidin-1-yl)-2-oxoacetamide] | 5 to 50 | 75 to 125 | A (“A” indicates an IC50 ratio greater than or equal to 30 fold) | – | < 100 | > 50 | – | – | – | –
15 | [2H]C([2H])([2H])N1CCC(c2nc3cc([C@H]4CC[C@H](C)CN4C(=O)C(=O)Nc4cnc(OC)c(C(N)=O)c4)ccc3s2)CC1 [Compound 5, 2-methoxy-5-[[2-oxo-2-[(2R,5S)-5-methyl-2-[2-[1-(trideuteriomethyl)-4-piperidyl]-1,3-benzothiazol-5-yl]-1-piperidyl]acetyl]amino]pyridine-3-carboxamide] | – | – | – | – | < 100 | – | – | – | – | –
